Experimental data as given in US8178506B2, “Oligomeric compounds and compositions for use in modulation of small non-coding RNAs” (Regulus Therapeutics Inc., priority 2003, dated 2012).
In the oligonucleotide strings, read from the 5' end, every base follows the letter of its sugar. An asterisk marks phosphorothioate; unmarked linkages are phosphodiester. Other units and linkages are bracketed, terminal groups are in braces. A string of capitals states the bases alone. e = 2'-O-(2-methoxyethyl) (MOE); [5mC] = 5-methylcytosine; d = 2'-deoxy (DNA)

How the values were obtained:
[1] = system: mir-21 miRNA; test: pGL3-mir-21 sensor luciferase assay in HeLa cells; type: cell-based, human; settings: Table 44, pGL3-mir-21 sensor-expressing HeLa cells
Excerpt: In order to assess the ability of miRNAs to bind predicted miRNA binding sites and regulate the expression of the luciferase reporter, in some embodiments, expression systems based on the pGL3-Control (Promega Corp., Madison Wis.) reporter vector and comprising either a mir-15a, mir-21, or a mir-23b miRNA binding site were developed and used in transient transfections of HeLa cells to determine whether the endogenous mir-15a, mir-21, or mir-23b miRNAs, respectively, could repress luciferase reporter gene expression.
The pGL3-mir-21 sensor plasmid was created by cloning the sequence ([…]; SEQ ID NO: 335), representing a sequence complementary to the mir-21 miRNA, into the Xba site of the pGL3-Control plasmid, placing the potential miRNA-binding site in the 3′UTR of the luciferase reporter. This reporter plasmid was used to transfect HeLa cells and it was observed that the endogenous mir-21 miRNA was able to inhibit luciferase expression from the pGL3-mir-21 sensor plasmid. Thus, to further evaluate the ability of the mir-21 miRNA to bind this target site encoded by the pGL3-mir-21 sensor plasmid, and to assess the ability of oligomeric compounds to interfere with mir-21-mediated silencing, pGL3-mir-21 sensor-expressing HeLa cells were treated with varying concentrations (10 nM or 50 nM) of the following oligomeric compounds: ISIS Number 327917 (SEQ ID NO: 335), a phosphorothioate uniform 2′-MOE oligomeric compound; ISIS Number 338697 ([…]; herein incorporated as SEQ ID NO: 524), a uniform 2′-MOE oligomeric compound targeting the mir-21 pri-miRNA molecule; and ISIS Number 328415 (SEQ ID NO: 524), a 2′-MOE 5-10-5 gapmer oligomeric compound targeting the mir-21 pri-miRNA. The uniform 2′-MOE phosphorothioate oligomeric compound ISIS Number 327901 (SEQ ID NO: 319) targeting an unrelated miRNA (mir-143) was used as a negative control. The data are the average of three trials and are presented in Table 44 as percent untreated control (luciferase plasmid only, not treated with oligomeric compound) luciferase expression, normalized to pRL-CMV levels.
In one embodiment, the oligomeric compounds ISIS Number 327917 (SEQ ID NO: 335), the phosphorothioate uniform 2′-MOE targeting mature mir-21; ISIS Number 358768 (SEQ ID NO: 918), the uniform 2′-MOE targeting the mir-21 pri-miRNA which stimulated the largest increase in pri-miRNA expression levels by real time quantitative RT-PCR; and ISIS Number 345382 (SEQ ID NO: 335), the 5-10-7 phosphorothioate 2′-MOE gapmer targeting mature mir-21 were selected for dose response studies in HeLa cells using the luciferase reporter system described in Example 27. ISIS Number 342683 (SEQ ID NO: 790), representing the scrambled nucleotide sequence of an unrelated PTP1B antisense oligonucleotide, was used as a negative control. HeLa cells expressing the pGL3-mir-21 sensor plasmid (described in Example 27) were treated with 1.9, 5.5, 16.7, and 50 nM of these oligomeric compounds, to assess the ability of oligomeric compounds to interfere with endogenous mir-21-mediated silencing of the pGL3-mir-21 sensor plasmid. The data are presented in Table 50 as percent untreated control (luciferase plasmid only, not treated with oligomeric compound) luciferase expression, normalized to pRL-CMV levels.

[2] = system: mir-15a pri-miRNA; test: mir-15a pri-miRNA expression in HepG2 cells (real-time RT-PCR); type: cell-based, human; settings: for Expression of mir-15a pri-miRNA (% UTC): HepG2 cells, 100 nM, real-time RT-PCR; for expression of the mir-15a pri-miRNA molecule: HepG2, 100 nM
Protocol: Using the real-time RT-PCR methods described in Example 19, the expression levels of the mir-15a pri-miRNA were compared in HepG2 cells treated with a nested series of chimeric gapmer oligomeric compounds, targeting and spanning the entire length of the mir-15a pri-miRNA; these compounds are shown in Table 45, below. […] All cytidine residues are 5-methylcytidines. Using the transfection methods described herein, HepG2 cells were treated with 100 nM of each of these gapmer oligomeric compounds. Total RNA was isolated from HepG2 cells by lysing cells in 1 mL TRIZOL™ (Invitrogen) using the manufacturer's recommended protocols. Real-time RT-PCR analysis was performed using a primer/probe set specific for the mir-15a pri-miRNA molecule to assess the effects of these compounds on expression of the mir-15a pri-miRNA molecule. ISIS 339317 ([…]; SEQ ID NO.: 885) was used as the forward primer, ISIS 339318 (TGGCCTGCACCTTTTCAAA; SEQ ID NO.: 886) was used as the reverse primer, and ISIS 339319 ([…]; SEQ ID NO.: 887) was used as the probe. Total RNA was quantified using RiboGreen™ RNA quantification reagent (Molecular Probes, Inc. Eugene, Oreg.), expression levels observed for each target are normalized to 5.8S rRNA, and values are expressed relative to the untreated control. Inhibition of expression of the mir15a pri-miRNA by these gapmer oligomeric compounds is expressed as a percentage of RNA levels in untreated control cells.

[3] = system: T47D cells; test: Caspase-3 activity assay (apoptosis) in T47D cells; settings: T47D cells, 200 nM, 48 hours, relative to untreated control

338697 (antisense TGCCATGAGATTCAACAGTC; all 2'-MOE, all phosphorothioate, methylation of C not given here) [compound 338697]
luciferase expression % UTC ([1]; 10 nM): 87.0 % UTC
luciferase expression % UTC ([1]; 50 nM): 84.8 % UTC

347982 (eT*eT*e[5mC]*eA*eG*dA*dA*dG*dA*dT*d[5mC]*dA*dG*dA*dT*e[5mC]*e[5mC]*eT*eT*eG; antisense) [compound 347982]
Expression of mir-15a pri-miRNA (% UTC) [2]: 82.2 % UTC

347970 (eA*eT*eA*eT*eG*dG*d[5mC]*d[5mC]*dT*dG*d[5mC]*dA*d[5mC]*d[5mC]*dT*eT*eT*eT*e[5mC]*eA; antisense) [compound 347970]
Expression of mir-15a pri-miRNA (% UTC) [2]: 2.2 % UTC

347965 (eG*e[5mC]*eT*eA*e[5mC]*dT*dT*dT*dA*d[5mC]*dT*d[5mC]*d[5mC]*dA*dA*eG*eG*eT*eT*eT; antisense) [compound 347965]
Expression of mir-15a pri-miRNA (% UTC) [2]: 86.0 % UTC

347969 (eT*eG*eG*e[5mC]*e[5mC]*dT*dG*d[5mC]*dA*d[5mC]*d[5mC]*dT*dT*dT*dT*e[5mC]*eA*eA*eA*eA; antisense) [compound 347969]
Expression of mir-15a pri-miRNA (% UTC) [2]: 39.5 % UTC

328415 (antisense eT*eG*e[5mC]*e[5mC]*eA*dT*dG*dA*dG*dA*dT*dT*d[5mC]*dA*dA*e[5mC]*eA*eG*eT*e[5mC]) [compound 328415]
Fold Increase over UTC (caspase activity) [3]: 1.1
luciferase expression % UTC ([1]; 10 nM): 66.0 % UTC
luciferase expression % UTC ([1]; 50 nM): 104.4 % UTC

347980 (eA*eG*eA*eT*e[5mC]*dA*dG*dA*dT*d[5mC]*d[5mC]*dT*dT*dG*dT*eA*eT*eT*eT*eT; antisense) [compound 347980]
Expression of mir-15a pri-miRNA (% UTC) [2]: 3.6 % UTC

347976 (eT*eA*eT*eT*eT*dT*dT*dG*dA*dG*dG*d[5mC]*dA*dG*d[5mC]*eA*e[5mC]*eA*eA*eT; antisense) [compound 347976]
Expression of mir-15a pri-miRNA (% UTC) [2]: 73.0 % UTC

347971 (eA*e[5mC]*eA*eA*eT*dA*dT*dG*dG*d[5mC]*d[5mC]*dT*dG*d[5mC]*dA*e[5mC]*e[5mC]*eT*eT*eT; antisense) [compound 347971]
Expression of mir-15a pri-miRNA (% UTC) [2]: 92.8 % UTC

347978 (eT*e[5mC]*e[5mC]*eT*eT*dG*dT*dA*dT*dT*dT*dT*dT*dG*dA*eG*eG*e[5mC]*eA*eG; antisense) [compound 347978]
Expression of mir-15a pri-miRNA (% UTC) [2]: 51.1 % UTC

ISIS 347964: 5-10-5 2′-MOE gapmer PS; targets mir-15a pri-miRNA (antisense eT*eA*eT*eA*eA*d[5mC]*dA*dT*dT*dG*dA*dT*dG*dT*dA*eA*eT*eA*eT*eG)
expression of the mir-15a pri-miRNA molecule [2]: significant inhibition of expression of the mir-15a pri-miRNA molecule

ISIS 347970: 5-10-5 2′-MOE gapmer PS; targets mir-15a pri-miRNA (antisense eA*eT*eA*eT*eG*dG*d[5mC]*d[5mC]*dT*dG*d[5mC]*dA*d[5mC]*d[5mC]*dT*eT*eT*eT*e[5mC]*eA)
expression of the mir-15a pri-miRNA molecule [2]: significant inhibition of expression of the mir-15a pri-miRNA molecule

347967 (eG*e[5mC]*eA*e[5mC]*e[5mC]*dT*dT*dT*dT*d[5mC]*dA*dA*dA*dA*dT*e[5mC]*e[5mC]*eA*e[5mC]*eA) [compound 347967]
Expression of mir-15a pri-miRNA (% UTC) [2]: 152.3 % UTC

347975 (eT*eT*eT*eT*eG*dA*dG*dG*d[5mC]*dA*dG*d[5mC]*dA*d[5mC]*dA*eA*eT*eA*eT*eG; antisense) [compound 347975]
Expression of mir-15a pri-miRNA (% UTC) [2]: 9.2 % UTC

ISIS 347977: 5-10-5 2′-MOE gapmer PS; targets mir-15a pri-miRNA (antisense eT*eT*eG*eT*eA*dT*dT*dT*dT*dT*dG*dA*dG*dG*d[5mC]*eA*eG*e[5mC]*eA*e[5mC])
expression of the mir-15a pri-miRNA molecule [2]: stimulate an increase in expression levels of the mir-15a pri-miRNA

ISIS 347975: 5-10-5 2′-MOE gapmer PS; targets mir-15a pri-miRNA (antisense eT*eT*eT*eT*eG*dA*dG*dG*d[5mC]*dA*dG*d[5mC]*dA*d[5mC]*dA*eA*eT*eA*eT*eG)
expression of the mir-15a pri-miRNA molecule [2]: significant inhibition of expression of the mir-15a pri-miRNA molecule

ISIS 347967: 5-10-5 2′-MOE gapmer PS; targets mir-15a pri-miRNA (antisense eG*e[5mC]*eA*e[5mC]*e[5mC]*dT*dT*dT*dT*d[5mC]*dA*dA*dA*dA*dT*e[5mC]*e[5mC]*eA*e[5mC]*eA)
expression of the mir-15a pri-miRNA molecule [2]: stimulate an increase in expression levels of the mir-15a pri-miRNA

347972 (eA*eG*e[5mC]*eA*e[5mC]*dA*dA*dT*dA*dT*dG*dG*d[5mC]*d[5mC]*dT*eG*e[5mC]*eA*e[5mC]*e[5mC]; antisense) [compound 347972]
Expression of mir-15a pri-miRNA (% UTC) [2]: 98.6 % UTC
